“And” between values parts separate entries of the source, which are not always exact repeats. Identical values can stand only once. Inconclusive results and toxic doses are left out. Rule for the calls: active = survival T/C of 150% or more; inactive = T/C below 125% in these data. Peptide text beside a SMILES is read from it.
System: P388 leukemia ip, CD2F1 mice, survival T/C
Assay: NCI In Vivo Anticancer Drug Screen. Data for tumor model P388 Leukemia (intraperitoneal) in CD2F1 (CDF1) mice
Details: endpoint: median survival time, higher = longer survival
How it was run: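 Mice carrying the transplanted tumor received test compound or vehicle. Survival was recorded in each group, and the value is the treated-group measurement divided by that of the vehicle-treated control group.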

[1] = dose: 100.0 mg/kg/injection, schedule: Q01DX009 (ip), vehicle: saline with Tween-80
[2] = dose: 200.0 mg/kg/injection, schedule: Q01DX009 (ip), vehicle: saline with Tween-80
[3] = dose: 400.0 mg/kg/injection, schedule: Q01DX009 (ip), vehicle: saline with Tween-80
[4] = dose: 25.0 mg/kg/injection, schedule: Q01DX009 (ip), vehicle: saline with Tween-80
[5] = dose: 50.0 mg/kg/injection, schedule: Q01DX009 (ip), vehicle: saline with Tween-80
[6] = dose: 100.0 mg/kg/injection, schedule: Q01DX009 (ip), vehicle: saline

Measured: T/C

COC1=CCC(Cc2ccc[nH]2)=CC1
inactive: dose: 100.0 mg/kg/injection, schedule: Q01DX001 (ip), vehicle: distilled water + Tween-80 + alcohol 98 % of control | dose: 200.0 mg/kg/injection, schedule: Q01DX001 (ip), vehicle: distilled water + Tween-80 + alcohol 105 % of control | dose: 400.0 mg/kg/injection, schedule: Q01DX001 (ip), vehicle: distilled water + Tween-80 + alcohol 107 % of control

COc1ccc(C(=O)O)cc1
inactive: [1] 101 % of control | [2] 96 % of control | [3] 109 % of control

CC=C(C)c1ccccc1 (mixture of isomers)
inactive: [4] 104 % of control | [5] 100 % of control | [1] 103 % of control | [2] 105 % of control

CCOC(=O)C(C)(C)Br
inactive: dose: 100.0 mg/kg/injection, schedule: Q01DX009 (ip), vehicle: saline sonified 105 % of control | dose: 200.0 mg/kg/injection, schedule: Q01DX009 (ip), vehicle: saline sonified 105 % of control | dose: 400.0 mg/kg/injection, schedule: Q01DX009 (ip), vehicle: saline sonified 115 % of control

CCC[CH2][Sn]([Cl])([CH2]CCC)[S]/C(C#N)=N/N=C/c1ccc(N(C)C)cc1
inactive: dose: 15.0 mg/kg/injection, schedule: Q01DX005 (ip), vehicle: saline with Tween-80 106 % of control | dose: 60.0 mg/kg/injection, schedule: Q01DX005 (ip), vehicle: saline with Tween-80 122 % of control

c1ccc2c(c1)nc1n2CC2(CO1)COc1nc3ccccc3n1C2
inactive: [5] 99 % of control | [1] 99 % of control | [2] 104 % of control

NC(=O)c1sc(SCc2ccccc2)c(-[n+]2ccccc2)c1N
inactive: dose: 25.0 mg/kg/injection, schedule: Q04DX002 (ip), vehicle: saline with Tween-80 105 % of control | dose: 50.0 mg/kg/injection, schedule: Q04DX002 (ip), vehicle: saline with Tween-80 105 % of control

O=C(OCC1OC(n2cnc3c(=S)nc[nH]c32)C(OC(=O)c2ccc(Cl)cc2)C1OC(=O)c1ccc(Cl)cc1)c1ccc(Cl)cc1 (configuration not stated)
inactive: [5] 90 % of control | [1] 90 % of control | [2] 90 % of control | [3] 90 % of control

Cn1c(C2(C)C(=O)NC(=O)c3cnccc32)cc2ccccc21 (configuration not stated)
inactive: dose: 100.0 mg/kg/injection, schedule: Q04DX002 (ip), vehicle: Klucel (hydroxypropylcellulose) (HPC) 103 % of control | dose: 200.0 mg/kg/injection, schedule: Q04DX002 (ip), vehicle: Klucel (hydroxypropylcellulose) (HPC) 92 % of control

COc1cc2c(cc1O)-c1oncc1CCC2
inactive: dose: 100.0 mg/kg/injection, schedule: Q04DX002 (ip), vehicle: saline 94 % of control | dose: 200.0 mg/kg/injection, schedule: Q04DX002 (ip), vehicle: saline 98 % of control | dose: 400.0 mg/kg/injection, schedule: Q04DX002 (ip), vehicle: saline 95 % of control

Nc1ccc(O)cc1O
inactive: dose: 1.56 mg/kg/injection, schedule: Q01DX009 (ip), vehicle: saline 98 % of control | dose: 3.12 mg/kg/injection, schedule: Q01DX009 (ip), vehicle: saline 109 % of control | dose: 6.25 mg/kg/injection, schedule: Q01DX009 (ip), vehicle: saline 106 % of control | dose: 12.5 mg/kg/injection, schedule: Q01DX009 (ip), vehicle: saline 118 % of control and 119 % of control

O=C1NC2(c3ccccc3)NC(=O)NC2(c2ccccc2)N1 (configuration not stated)
inactive: dose: 50.0 mg/kg/injection, schedule: Q01DX009 (ip), vehicle: saline 99 % of control | [6] 93 % of control | dose: 100.0 mg/kg/injection, schedule: Q04DX003 (ip), vehicle: saline with Tween-80 100 % of control | dose: 100.0 mg/kg/injection, schedule: Q04DX003 (ip), vehicle: saline 94 % of control | dose: 200.0 mg/kg/injection, schedule: Q01DX009 (ip), vehicle: saline 96 % of control | dose: 200.0 mg/kg/injection, schedule: Q04DX003 (ip), vehicle: saline with Tween-80 100 % of control | dose: 200.0 mg/kg/injection, schedule: Q04DX003 (ip), vehicle: saline 94 % of control | dose: 400.0 mg/kg/injection, schedule: Q04DX003 (ip), vehicle: saline with Tween-80 86 % of control | dose: 400.0 mg/kg/injection, schedule: Q04DX003 (ip), vehicle: saline 92 % of control

NC(CC1C=CCCC1)C(=O)O (configuration not stated)
inactive: dose: 60.0 mg/kg/injection, schedule: Q01DX005 (ip), vehicle: Klucel (hydroxypropylcellulose) (HPC) 98 % of control | dose: 120.0 mg/kg/injection, schedule: Q01DX005 (ip), vehicle: Klucel (hydroxypropylcellulose) (HPC) 98 % of control | dose: 240.0 mg/kg/injection, schedule: Q01DX005 (ip), vehicle: Klucel (hydroxypropylcellulose) (HPC) 95 % of control

FP1(c2ccccc2)(c2ccccc2)Nc2cc(C(c3ccccc3)(c3ccccc3)c3ccccc3)ccc2O1
inactive: dose: 12.5 mg/kg/injection, schedule: Q01DX009 (ip), vehicle: saline with Tween-80 104 % of control | [4] 98 % of control | [5] 92 % of control | [2] 95 % of control

CC(C)CC(N)C(=O)NC(C)C(=O)NC(CC(C)C)C(=O)O (stereo not drawn) (H-Leu-Ala-Leu-OH; configuration not given here)
inactive: dose: 25.0 mg/kg/injection, schedule: Q01DX005 (ip), vehicle: saline 101 % of control | dose: 50.0 mg/kg/injection, schedule: Q01DX005 (ip), vehicle: saline 102 % of control | dose: 100.0 mg/kg/injection, schedule: Q01DX005 (ip), vehicle: saline 101 % of control | dose: 200.0 mg/kg/injection, schedule: Q01DX005 (ip), vehicle: saline 100 % of control

CN1CCC(Br)(C(=O)c2ccccc2)CC1
inactive: dose: 37.5 mg/kg/injection, schedule: Q01DX009 (ip), vehicle: saline with Tween-80 100 % of control | dose: 75.0 mg/kg/injection, schedule: Q01DX009 (ip), vehicle: saline with Tween-80 100 % of control | dose: 150.0 mg/kg/injection, schedule: Q01DX009 (ip), vehicle: saline with Tween-80 104 % of control

Cc1c(-c2ccccc2)n(O)c(-c2ccc([N+](=O)[O-])cc2)[n+]1[O-]
inactive: [5] 99 % of control | [1] 94 % of control | [2] 94 % of control

CCCCOc1cccc2c(NCCNc3c4ccccc4nc4c(OCCCC)cccc34)c3ccccc3nc12
inactive: dose: 0.62 mg/kg/injection, schedule: Q01DX009 (ip), vehicle: other 105 % of control | dose: 1.25 mg/kg/injection, schedule: Q01DX009 (ip), vehicle: other 109 % of control | dose: 2.5 mg/kg/injection, schedule: Q01DX009 (ip), vehicle: other 101 % of control | dose: 5.0 mg/kg/injection, schedule: Q01DX009 (ip), vehicle: other 100 % of control | dose: 10.0 mg/kg/injection, schedule: Q01DX009 (ip), vehicle: other 100 % of control

O=C(N=Cc1ccco1)C(=O)Nc1ccc(Cl)c([N+](=O)[O-])c1
inactive: [5] 100 % of control | [1] 91 % of control | [2] 96 % of control

O=C1OCc2c[n+]([O-])ccc21
inactive: dose: 20.0 mg/kg/injection, schedule: Q01DX005 (ip), vehicle: Klucel (hydroxypropylcellulose) (HPC) 96 % of control | dose: 40.0 mg/kg/injection, schedule: Q01DX005 (ip), vehicle: Klucel (hydroxypropylcellulose) (HPC) 118 % of control | dose: 80.0 mg/kg/injection, schedule: Q01DX005 (ip), vehicle: Klucel (hydroxypropylcellulose) (HPC) 91 % of control

Cc1cc(NC(=O)c2ccc(N=Nc3c(O)c(S(=O)(=O)O)cc4cc(S(=O)(=O)O)ccc34)cc2)ccc1N=Nc1ccc2cc(S(=O)(=O)O)cc(S(=O)(=O)O)c2c1
inactive: dose: 50.0 mg/kg/injection, schedule: Q01DX005 (ip), vehicle: saline with Tween-80 95 % of control | dose: 100.0 mg/kg/injection, schedule: Q01DX005 (ip), vehicle: saline with Tween-80 98 % of control | dose: 200.0 mg/kg/injection, schedule: Q01DX005 (ip), vehicle: saline with Tween-80 104 % of control

CC(C)NCC(O)COc1ccc(O)c(O)c1 (configuration not stated)
inactive: dose: 25.0 mg/kg/injection, schedule: Q01DX009 (ip), vehicle: saline 100 % of control | [6] 123 % of control

O=C(O)C1Cc2c([nH]c3ccccc23)CN1 (configuration not stated)
inactive: dose: 12.5 mg/kg/injection, schedule: Q01DX009 (ip), vehicle: suspension in saline 100 % of control | dose: 25.0 mg/kg/injection, schedule: Q01DX009 (ip), vehicle: suspension in saline 109 % of control | dose: 50.0 mg/kg/injection, schedule: Q01DX009 (ip), vehicle: suspension in saline 105 % of control | dose: 100.0 mg/kg/injection, schedule: Q01DX009 (ip), vehicle: suspension in saline 106 % of control

Clc1cc2c(c3ncccc13)OCN(Cc1ccccc1)C2
inactive: dose: 100.0 mg/kg/injection, schedule: Q04DX003 (ip), vehicle: Klucel (hydroxypropylcellulose) (HPC) 91 % of control | dose: 200.0 mg/kg/injection, schedule: Q04DX003 (ip), vehicle: Klucel (hydroxypropylcellulose) (HPC) 92 % of control | dose: 400.0 mg/kg/injection, schedule: Q04DX003 (ip), vehicle: Klucel (hydroxypropylcellulose) (HPC) 92 % of control

From PubChem BioAssay AID330 (DTP/NCI, 2004)
